According to ChEMBL document CHEMBL1201862, “PubChem BioAssay data set” (2004):
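Dose response: 5 concentrations. Exposure: 48 h. Format: 96-well plates. Endpoint: linear interpolation; highest concentration if not reached. The concentration for 50% growth inhibition is given as GI50.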 Active and inactive are the calls of the source. Cut-off read from the data, not from the text of the source: active = GI50 up to about 1.1 µM and inactive = higher.

Columns and labels:
Assay in all cases: NCI anticancer screen, dose series, 48 h
CCRF-CEM = tested on: CCRF-CEM
UACC-62 = tested on: UACC-62
RXF 631 = tested on: RXF 631
KM12 = tested on: KM12
UO-31 = tested on: UO-31
M14 = tested on: M14
A549 = tested on: A549
U-251 = tested on: U-251
SR = tested on: SR
SK-OV-3 = tested on: SK-OV-3
MOLT-4 = tested on: MOLT-4
OVCAR-5 = tested on: OVCAR-5
M19-MEL = tested on: M19-MEL
NCI-H522 = tested on: NCI-H522
NCI-H23 = tested on: NCI-H23
A498 = tested on: A498
NCI-H226 = tested on: NCI-H226
SNB-19 = tested on: SNB-19
IGROV-1 = tested on: IGROV-1
HL-60 = tested on: HL-60
NCI-H460 = tested on: NCI-H460
HCT-116 = tested on: HCT-116
SF-295 = tested on: SF-295
HT-29 = tested on: HT-29
SNB-78 = tested on: SNB-78
UACC-257 = tested on: UACC-257
RXF 393 = tested on: RXF 393
OVCAR-8 = tested on: OVCAR-8
TK-10 = tested on: TK-10
SK-MEL-28 = tested on: SK-MEL-28
HOP-92 = tested on: HOP-92
KM-20L2 = tested on: KM-20L2
HOP-62 = tested on: HOP-62
DLD-1 = tested on: DLD-1
CAKI-1 = tested on: CAKI-1
ACHN = tested on: ACHN
RPMI-8226 = tested on: RPMI-8226
LOX IMVI = tested on: LOX IMVI
HCT-15 = tested on: HCT-15
SN12C = tested on: SN12C
Malme-3M = tested on: Malme-3M
SF-268 = tested on: SF-268
EKVX = tested on: EKVX
SK-MEL-5 = tested on: SK-MEL-5
SK-MEL-2 = tested on: SK-MEL-2
SW-620 = tested on: SW-620
DMS-114 = tested on: DMS-114
SNB-75 = tested on: SNB-75
HCC 2998 = tested on: HCC 2998
K562 = tested on: K562
OVCAR-4 = tested on: OVCAR-4
DMS-273 = tested on: DMS-273
786-0 = tested on: 786-0
SF-539 = tested on: SF-539
LXFL 529 = tested on: LXFL 529
COLO 205 = tested on: COLO 205
HOP-18 = tested on: HOP-18
OVCAR-3 = tested on: OVCAR-3

CCNC(CCCC(NCC)P(=O)(O)O)P(=O)(O)O (stereo not drawn)
GI50 (CCRF-CEM): > 100 µM (inactive)
GI50 (UACC-62): > 100 µM (inactive)
GI50 (RXF 631): > 100 µM (inactive)
GI50 (KM12): > 100 µM (inactive)
GI50 (UO-31): > 100 µM (inactive)
GI50 (M14): > 100 µM (inactive)
GI50 (A549): > 100 µM (inactive)
GI50 (U-251): > 100 µM (inactive)
GI50 (SR): > 100 µM (inactive)
GI50 (SK-OV-3): > 100 µM (inactive)
GI50 (MOLT-4): > 100 µM (inactive)
GI50 (OVCAR-5): > 100 µM (inactive)
GI50 (M19-MEL): > 100 µM (inactive)
GI50 (NCI-H522): > 100 µM (inactive)
GI50 (NCI-H23): > 100 µM (inactive)
GI50 (A498): > 100 µM (inactive)
GI50 (NCI-H226): > 100 µM (inactive)
GI50 (SNB-19): > 100 µM (inactive)
GI50 (IGROV-1): > 100 µM (inactive)
GI50 (HL-60): > 100 µM (inactive)
GI50 (NCI-H460): > 100 µM (inactive)
GI50 (HCT-116): > 100 µM (inactive)
GI50 (SF-295): > 100 µM (inactive)
GI50 (HT-29): > 100 µM (inactive)
GI50 (SNB-78): > 100 µM (inactive)
GI50 (UACC-257): > 100 µM (inactive)
GI50 (RXF 393): > 100 µM (inactive)
GI50 (OVCAR-8): > 100 µM (inactive)
GI50 (TK-10): > 100 µM (inactive)
GI50 (SK-MEL-28): > 100 µM (inactive)
GI50 (HOP-92): > 100 µM (inactive)
GI50 (KM-20L2): > 100 µM (inactive)
GI50 (HOP-62): > 100 µM (inactive)

CCOC(=O)C(=O)Nc1ccc(C)c(C)c1
GI50 (DLD-1): > 100 µM (inactive)
GI50 (CAKI-1): > 100 µM (inactive)
GI50 (ACHN): > 100 µM (inactive)
GI50 (CCRF-CEM): > 100 µM (inactive)
GI50 (RPMI-8226): > 100 µM (inactive)
GI50 (UACC-62): > 100 µM (inactive)
GI50 (LOX IMVI): > 56.1 µM (inactive)
GI50 (HCT-15): > 41.2 µM
GI50 (RXF 631): > 100 µM (inactive)
GI50 (KM12): > 53.8 µM (inactive)
GI50 (UO-31): > 100 µM (inactive)
GI50 (M14): > 100 µM (inactive)
GI50 (A549): > 100 µM (inactive)
GI50 (SN12C): > 100 µM (inactive)
GI50 (U-251): > 100 µM (inactive)
GI50 (Malme-3M): > 100 µM (inactive)
GI50 (SR): < 0.01 µM (active)
GI50 (SF-268): > 100 µM (inactive)
GI50 (SK-OV-3): > 100 µM (inactive)
GI50 (EKVX): > 100 µM (inactive)
GI50 (MOLT-4): > 100 µM (inactive)
GI50 (OVCAR-5): > 100 µM (inactive)
GI50 (M19-MEL): > 67.5 µM (inactive)
GI50 (SK-MEL-5): > 100 µM (inactive)
GI50 (NCI-H522): > 100 µM (inactive)
GI50 (NCI-H23): > 100 µM (inactive)
GI50 (A498): > 100 µM (inactive)
GI50 (SK-MEL-2): > 100 µM (inactive)
GI50 (SW-620): 5.81 µM (inactive)
GI50 (DMS-114): > 40.9 µM (inactive)
GI50 (NCI-H226): > 100 µM (inactive)
GI50 (SNB-75): > 100 µM (inactive)
GI50 (HCC 2998): > 100 µM (inactive)
GI50 (SNB-19): > 100 µM (inactive)
GI50 (IGROV-1): > 100 µM (inactive)
GI50 (K562): > 73.1 µM (inactive)
GI50 (HL-60): > 54.8 µM (inactive)
GI50 (NCI-H460): > 60.4 µM (inactive)
GI50 (HCT-116): > 84.7 µM (inactive)
GI50 (OVCAR-4): > 100 µM (inactive)
GI50 (DMS-273): 34.8 µM (inactive)
GI50 (786-0): > 100 µM (inactive)
GI50 (SF-295): > 100 µM (inactive)
GI50 (HT-29): > 56.2 µM (inactive)
GI50 (SF-539): > 100 µM (inactive)
GI50 (LXFL 529): > 86.9 µM (inactive)
GI50 (SNB-78): > 100 µM (inactive)
GI50 (UACC-257): > 100 µM (inactive)
GI50 (COLO 205): 17.1 µM (inactive)
GI50 (RXF 393): > 100 µM (inactive)
GI50 (TK-10): > 100 µM (inactive)
GI50 (SK-MEL-28): > 100 µM (inactive)
GI50 (KM-20L2): > 100 µM (inactive)
GI50 (HOP-62): > 100 µM (inactive)

O=C1CCC(=O)C1=NNc1ccccc1
GI50 (DLD-1): > 100 µM (inactive)
GI50 (CAKI-1): > 100 µM (inactive)
GI50 (ACHN): > 100 µM (inactive)
GI50 (CCRF-CEM): > 100 µM (inactive)
GI50 (UACC-62): 8.38 µM (inactive)
GI50 (LOX IMVI): > 100 µM (inactive)
GI50 (HCT-15): > 100 µM
GI50 (RXF 631): > 100 µM (inactive)
GI50 (KM12): > 100 µM (inactive)
GI50 (UO-31): > 100 µM (inactive)
GI50 (M14): > 100 µM (inactive)
GI50 (A549): > 100 µM (inactive)
GI50 (SN12C): > 100 µM (inactive)
GI50 (U-251): > 100 µM (inactive)
GI50 (Malme-3M): > 100 µM (inactive)
GI50 (SF-268): > 100 µM (inactive)
GI50 (SK-OV-3): > 100 µM (inactive)
GI50 (EKVX): > 100 µM (inactive)
GI50 (MOLT-4): > 100 µM (inactive)
GI50 (OVCAR-5): > 100 µM (inactive)
GI50 (M19-MEL): > 100 µM (inactive)
GI50 (SK-MEL-5): 80.4 µM (inactive)
GI50 (NCI-H23): > 100 µM (inactive)
GI50 (A498): 43.6 µM (inactive)
GI50 (SK-MEL-2): > 100 µM (inactive)
GI50 (SW-620): > 100 µM (inactive)
GI50 (DMS-114): > 100 µM (inactive)
GI50 (NCI-H226): > 100 µM (inactive)
GI50 (SNB-75): > 100 µM (inactive)
GI50 (HCC 2998): > 100 µM (inactive)
GI50 (SNB-19): > 100 µM (inactive)
GI50 (IGROV-1): > 100 µM (inactive)
GI50 (HOP-18): > 100 µM (inactive)
GI50 (K562): > 100 µM (inactive)
GI50 (HL-60): > 100 µM (inactive)
GI50 (NCI-H460): > 100 µM (inactive)
GI50 (HCT-116): > 100 µM (inactive)
GI50 (OVCAR-4): > 100 µM (inactive)
GI50 (OVCAR-3): > 100 µM (inactive)
GI50 (DMS-273): > 100 µM (inactive)
GI50 (786-0): > 100 µM (inactive)
GI50 (SF-295): > 100 µM (inactive)
GI50 (HT-29): > 100 µM (inactive)
GI50 (SF-539): > 100 µM (inactive)
GI50 (SNB-78): > 100 µM (inactive)
GI50 (UACC-257): > 100 µM (inactive)
GI50 (COLO 205): > 100 µM (inactive)
GI50 (RXF 393): > 100 µM (inactive)
GI50 (OVCAR-8): > 100 µM (inactive)
GI50 (TK-10): > 100 µM (inactive)
GI50 (SK-MEL-28): > 100 µM (inactive)
GI50 (HOP-92): > 100 µM (inactive)
GI50 (HOP-62): > 100 µM (inactive)

CC1=C2C(c3ccccc3)(c3ccccc3)C3C=CC2(C=N3)N(C(=O)NC2CCCCC2)C1=O (stereo not drawn)
GI50 (CAKI-1): 12.6 µM (inactive)
GI50 (ACHN): 19.5 µM (inactive)
GI50 (CCRF-CEM): 16.5 µM (inactive)
GI50 (RPMI-8226): 15.9 µM (inactive)
GI50 (UACC-62): 18.7 µM (inactive)
GI50 (LOX IMVI): 15.7 µM (inactive)
GI50 (HCT-15): 16.4 µM
GI50 (RXF 631): 12.7 µM (inactive)
GI50 (KM12): 18.1 µM (inactive)
GI50 (UO-31): 14.3 µM (inactive)
GI50 (M14): 17.5 µM (inactive)
GI50 (A549): 16.9 µM (inactive)
GI50 (SN12C): 17.6 µM (inactive)
GI50 (U-251): 16.6 µM (inactive)
GI50 (Malme-3M): 17.4 µM (inactive)
GI50 (SR): 17.1 µM (inactive)
GI50 (SF-268): 17.4 µM (inactive)
GI50 (SK-OV-3): 28.7 µM (inactive)
GI50 (EKVX): 14.8 µM (inactive)
GI50 (MOLT-4): 17.4 µM (inactive)
GI50 (OVCAR-5): 17.7 µM (inactive)
GI50 (SK-MEL-5): 16.8 µM (inactive)
GI50 (NCI-H23): 18.4 µM (inactive)
GI50 (A498): 17.5 µM (inactive)
GI50 (SW-620): 17.3 µM (inactive)
GI50 (DMS-114): 17.9 µM (inactive)
GI50 (HCC 2998): 17.9 µM (inactive)
GI50 (SNB-19): 17.6 µM (inactive)
GI50 (IGROV-1): 18.9 µM (inactive)
GI50 (HOP-18): 18.7 µM (inactive)
GI50 (K562): 17.5 µM (inactive)
GI50 (HL-60): 14.7 µM (inactive)
GI50 (HCT-116): 16 µM (inactive)
GI50 (OVCAR-4): 17.6 µM (inactive)
GI50 (OVCAR-3): 14.8 µM (inactive)
GI50 (DMS-273): 17.9 µM (inactive)
GI50 (786-0): 15.4 µM (inactive)
GI50 (SF-295): 16.9 µM (inactive)
GI50 (SF-539): 15.9 µM (inactive)
GI50 (LXFL 529): 16.6 µM (inactive)
GI50 (SNB-78): 16.3 µM (inactive)
GI50 (UACC-257): 17.1 µM (inactive)
GI50 (COLO 205): 15.9 µM (inactive)
GI50 (OVCAR-8): 17.9 µM (inactive)
GI50 (SK-MEL-28): 16.7 µM (inactive)
GI50 (HOP-92): 13.4 µM (inactive)
GI50 (KM-20L2): 16.8 µM (inactive)
GI50 (HOP-62): 17.5 µM (inactive)
